Like-named read-outs stand apart in the source and are kept apart here. *1 amine or outer side, *2 acyl side, *3 side chain or, on linkers, in order; H or OH if unused. Where a SMILES comes first, the peptide text is derived from it. Side-chain parts run from the residue outwards. [ ]: non-standard residue; d: D form. The star is where a group is joined. Nonadecanoyl(19-PO3H2) = O=C(CCCCCCCCCCCCCCCCCCP(=O)(O)O)*; γGlu = O=C(O)[C@H](CCC(=O)[*:2])N[*:1]; AEEA = NCCOCCOCC(=O)O; Aib = CC(C)(N)C(=O)O

In general, IC50 refers to the midpoint of a concentration-inhibition curve. One may read the AUC(0-inf) as the area under the concentration-time curve extrapolated to infinity. A higher AUC(0-inf) goes with high exposure. As a reminder, the AUC(0-t) is exposure summed from dosing to a finite time, without extrapolation to infinity. A higher AUC(0-t) goes with more exposure. As usually defined, the Cmax is the peak of the concentration-time curve. The Tmax is the time from dosing to the highest level. The term half-life denotes how long it takes for the measured level to halve.

The target in data set [1] is human recombinant GLP-1 receptor (Homo sapiens, UniProt P43220). As to the kind of experiment: TagLite binding assay, GLP-1 receptor, without and with 2% HSA. An excerpt:
(§1) Binding data for Compounds 15-25, for two human recombinant G protein coupled receptors, GLP-1 and GIP, was obtained using […]® binding assay and Epics Therapeutics cell lines. The binding assay was repeated in the presence of 2% human serum albumin (HSA). Compounds 16, 21, and 22 have an HSA ratio for the GLP-1 receptor of 7.1, 7.6, and 7.8, respectively. Compounds 15, 18, and 23 have an HSA ratio for the GIP receptor of 7.3, 4.3, and 6.4, respectively. A lower HSA ratio indicates greater binding affinity for the receptor than for albumin when compared to a compound with a greater HSA ratio.

The target of data set [2] is T1, human recombinant GIP receptor (Homo sapiens, UniProt P48546).
T1 sequence (P48546 22-466): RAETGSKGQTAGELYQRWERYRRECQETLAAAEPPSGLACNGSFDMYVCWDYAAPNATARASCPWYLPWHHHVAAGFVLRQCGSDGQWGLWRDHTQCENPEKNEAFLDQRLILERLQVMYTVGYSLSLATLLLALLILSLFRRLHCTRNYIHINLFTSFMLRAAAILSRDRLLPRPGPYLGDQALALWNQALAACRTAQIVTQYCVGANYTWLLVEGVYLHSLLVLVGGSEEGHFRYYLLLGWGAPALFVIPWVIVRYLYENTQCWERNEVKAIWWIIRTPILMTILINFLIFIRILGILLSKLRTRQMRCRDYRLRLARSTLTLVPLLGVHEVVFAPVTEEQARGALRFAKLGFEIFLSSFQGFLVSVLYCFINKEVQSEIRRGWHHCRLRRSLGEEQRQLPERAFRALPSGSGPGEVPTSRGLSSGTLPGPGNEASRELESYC
Briefly: TagLite binding assay, GIP receptor, without and with 2% HSA.
Excerpt: as §1

Details of data set [3]: species or system cynomolgus monkeys. The note with it: cynomolgus monkey, in vivo, sc, 0.2 mg/kg. As for the experimental part: Subcutaneous (SC) dosing of the compounds in a vehicle of 0.1% bovine serum albumin in phosphate buffered saline solution was performed with male cynomolgus monkeys. […] Samples were obtained at 1, 4, 8, 12, 24, 48, 72, 96, 120, 168, 192, 240 and 336 hours after the single dose was administered.

Where [4] appears, read: 2% human serum albumin, read-out: GLP-1 receptor IC50 2% HSA.
Where [5] appears, read: no HSA, read-out: GLP-1 receptor IC50 No HSA.
Where [6] appears, read: 2% human serum albumin, read-out: GIP receptor IC50 2% HSA.
[7] abbreviates: no HSA, read-out: GIP receptor IC50 No HSA.

Sequence of human recombinant GLP-1 receptor (P43220 24-463): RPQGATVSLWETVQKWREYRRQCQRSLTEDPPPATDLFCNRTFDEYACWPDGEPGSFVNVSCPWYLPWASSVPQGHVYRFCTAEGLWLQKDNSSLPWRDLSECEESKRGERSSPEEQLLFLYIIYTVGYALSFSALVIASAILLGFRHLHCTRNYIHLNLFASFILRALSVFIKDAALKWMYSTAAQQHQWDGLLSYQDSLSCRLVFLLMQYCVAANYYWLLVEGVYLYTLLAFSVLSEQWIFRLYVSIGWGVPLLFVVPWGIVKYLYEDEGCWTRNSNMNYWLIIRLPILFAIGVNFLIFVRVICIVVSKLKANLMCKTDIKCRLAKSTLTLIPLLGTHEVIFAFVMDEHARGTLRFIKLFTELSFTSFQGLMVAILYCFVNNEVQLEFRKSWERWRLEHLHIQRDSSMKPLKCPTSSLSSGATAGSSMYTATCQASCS

With `CC[C@H](C)[C@H](NC(=O)[C@H](CC(C)C)NC(=O)[C@H](Cc1c[nH]c2ccccc12)NC(=O)[C@H](CCC(N)=O)NC(=O)[C@@H](NC(=O)[C@H](Cc1ccccc1)NC(=O)[C@H](C)NC(=O)[C@H](CCCCNC(=O)COCCOCCNC(=O)COCCOCCNC(=O)CC[C@H](NC(=O)CCCCCCCCCCCCCCCCCCP(=O)(O)O)C(=O)O)NC(=O)[C@H](CCC(N)=O)NC(=O)[C@H](C)NC(=O)[C@@H](NC(=O)[C@H](CCCCN)NC(=O)[C@H](CC(=O)O)NC(=O)[C@H](CC(C)C)NC(=O)C(C)(C)NC(=O)[C@@H](NC(=O)[C@H](CO)NC(=O)[C@H](Cc1ccc(O)cc1)NC(=O)[C@H](CC(=O)O)NC(=O)[C@H](CO)NC(=O)[C@@H](NC(=O)[C@H](Cc1ccccc1)NC(=O)[C@@H](NC(=O)CNC(=O)[C@H](CCC(=O)O)NC(=O)C(C)(C)NC(=O)[C@@H](N)Cc1ccc(O)cc1)[C@@H](C)O)[C@@H](C)O)[C@@H](C)CC)C(C)C)C(C)C)C(=O)N[C@@H](C)C(=O)NCC(=O)NCC(=O)N1CCC[C@H]1C(=O)N[C@@H](CO)C(=O)N[C@@H](CO)C(=O)NCC(=O)N[C@@H](C)C(=O)N1CCC[C@H]1C(=O)N1CCC[C@H]1C(=O)N1CCC[C@H]1C(=O)N[C@@H](CO)C(N)=O` [Compound 17] (H-Y[Aib]EGTFTSDYSI[Aib]LDKVAQK([AEEA-AEEA-γGlu-Nonadecanoyl(19-PO3H2)])AFVQWLIAGGPSSGAPPPS-NH2), the 50% inhibitory concentration (IC50) in data set [1] (setting [4]) stood at 3.74 µM. The concentration for half-maximal inhibition (IC50) in data set [1] (setting [5]) is 0.316 µM. Besides, in data set [2] (setting [6]), the IC50 is 4.17 µM. Also, the IC50 in data set [2] (setting [7]) came out at 0.543 µM. In data set [3], the AUC(0-inf) was 286 µg·h/mL, the AUC(0-t) worked out at 254 µg·h/mL, the Cmax stood at 2300 ng/mL and the Tmax amounted to 6.67 h. Further, in data set [3], the half-life is 102 h and the “mean half life longer compared to tirzepatide” value is on record as “at least 50%”.

As for `CC[C@H](C)[C@H](NC(=O)[C@H](CCCCN)NC(=O)[C@H](CC(=O)O)NC(=O)[C@H](CC(C)C)NC(=O)C(C)(C)NC(=O)[C@@H](NC(=O)[C@H](CO)NC(=O)[C@H](Cc1ccc(O)cc1)NC(=O)[C@H](CC(=O)O)NC(=O)[C@H](CO)NC(=O)[C@@H](NC(=O)[C@H](Cc1ccccc1)NC(=O)[C@@H](NC(=O)CNC(=O)[C@H](CCC(=O)O)NC(=O)C(C)(C)NC(=O)[C@@H](N)Cc1ccc(O)cc1)[C@@H](C)O)[C@@H](C)O)[C@@H](C)CC)C(=O)N[C@@H](C)C(=O)N[C@@H](CCC(N)=O)C(=O)N[C@@H](CCCCNC(=O)COCCOCCNC(=O)COCCOCCNC(=O)CC[C@H](NC(=O)CCCCCCCCCCCCCCCCCCP(=O)(O)O)C(=O)O)C(=O)N[C@@H](C)C(=O)N[C@@H](Cc1ccccc1)C(=O)N[C@H](C(=O)N[C@@H](CCC(N)=O)C(=O)N[C@@H](Cc1c[nH]c2ccccc12)C(=O)N[C@@H](CC(C)C)C(=O)N[C@H](C(=O)N[C@@H](CCCNC(=N)N)C(=O)NCC(=O)NCC(=O)N1CCC[C@H]1C(=O)N[C@@H](CO)C(=O)N[C@@H](CO)C(=O)NCC(=O)N[C@@H](C)C(=O)N1CCC[C@H]1C(=O)N1CCC[C@H]1C(=O)N1CCC[C@H]1C(=O)N[C@@H](CO)C(N)=O)[C@@H](C)CC)C(C)C` [Compound 20] (H-Y[Aib]EGTFTSDYSI[Aib]LDKIAQK([AEEA-AEEA-γGlu-Nonadecanoyl(19-PO3H2)])AFVQWLIRGGPSSGAPPPS-NH2), the half-inhibitory concentration (IC50) in data set [1] (setting [4]) worked out at 2.05 µM. In addition, the half-inhibitory concentration (IC50) in data set [1] (setting [5]) came out at 0.226 µM. Besides, in data set [2] (setting [6]), the 50% inhibitory concentration (IC50) was found to be 4.42 µM. For the same molecule, in data set [2] (setting [7]), the half-inhibitory concentration (IC50) came to 0.492 µM. For the same molecule, in data set [3], the AUC(0-inf) stood at 417 µg·h/mL, the AUC(0-t) worked out at 342 µg·h/mL, the highest level (Cmax) was 2060 ng/mL and the Tmax stood at 13.3 h. Besides, in data set [3], the half-life was 132 h, the “mean half life as compared to tirzepatide (in words)” value is recorded as “more than twice an long as compared to tirzepatide” and the “mean half life longer compared to tirzepatide” value is on record as “at least 50%”.

With `CC[C@H](C)[C@H](NC(=O)[C@H](CC(C)C)NC(=O)[C@H](Cc1c[nH]c2ccccc12)NC(=O)[C@H](CCC(N)=O)NC(=O)[C@@H](NC(=O)[C@H](Cc1ccccc1)NC(=O)[C@H](C)NC(=O)[C@H](CCCCNC(=O)COCCOCCNC(=O)COCCOCCNC(=O)CC[C@H](NC(=O)CCCCCCCCCCCCCCCCCCP(=O)(O)O)C(=O)O)NC(=O)[C@H](CCC(N)=O)NC(=O)[C@H](C)NC(=O)[C@@H](NC(=O)[C@H](CCCCN)NC(=O)[C@H](CC(=O)O)NC(=O)[C@H](CC(C)C)NC(=O)[C@H](Cc1ccccc1)NC(=O)[C@@H](NC(=O)[C@H](CO)NC(=O)[C@H](Cc1ccc(O)cc1)NC(=O)[C@H](CC(=O)O)NC(=O)[C@H](CO)NC(=O)[C@@H](NC(=O)[C@H](Cc1ccccc1)NC(=O)[C@@H](NC(=O)CNC(=O)[C@H](CCC(=O)O)NC(=O)C(C)(C)NC(=O)[C@@H](N)Cc1ccc(O)cc1)[C@@H](C)O)[C@@H](C)O)[C@@H](C)CC)C(C)C)C(C)C)C(=O)N[C@@H](C)C(=O)NCC(=O)NCC(=O)N1CCC[C@H]1C(=O)N[C@@H](CO)C(=O)N[C@@H](CO)C(=O)NCC(=O)N[C@@H](C)C(=O)N1CCC[C@H]1C(=O)N1CCC[C@H]1C(=O)N1CCC[C@H]1C(=O)N[C@@H](CO)C(N)=O` [Compound 19] (H-Y[Aib]EGTFTSDYSIFLDKVAQK([AEEA-AEEA-γGlu-Nonadecanoyl(19-PO3H2)])AFVQWLIAGGPSSGAPPPS-NH2), in data set [1] (setting [4]), the IC50 is 1.34 µM. Besides, in data set [1] (setting [5]), the IC50 came out at 0.153 µM. Also, in data set [2] (setting [6]), the IC50 turned out to be 4.45 µM. Also, the IC50 in data set [2] (setting [7]) turned out to be 0.551 µM. Moreover, in data set [3], the AUC(0-inf) is 175 µg·h/mL, the AUC(0-t) worked out at 159 µg·h/mL, the Cmax came to 1240 ng/mL and the time of peak concentration (Tmax) was 20 h. Also, in data set [3], the half-life was 96.7 h and the “mean half life longer compared to tirzepatide” value is recorded as “at least 50%”.

As to `CC[C@H](C)[C@H](NC(=O)[C@H](CC(C)C)NC(=O)[C@H](Cc1c[nH]c2ccccc12)NC(=O)[C@H](CCC(N)=O)NC(=O)[C@@H](NC(=O)[C@H](Cc1ccccc1)NC(=O)[C@H](C)NC(=O)[C@H](CCCCNC(=O)COCCOCCNC(=O)COCCOCCNC(=O)CC[C@H](NC(=O)CCCCCCCCCCCCCCCCCCP(=O)(O)O)C(=O)O)NC(=O)[C@H](CCC(N)=O)NC(=O)[C@H](C)NC(=O)[C@@H](NC(=O)[C@H](CCCCN)NC(=O)[C@H](CC(=O)O)NC(=O)[C@H](CC(C)C)NC(=O)C(C)(C)NC(=O)[C@@H](NC(=O)[C@H](CO)NC(=O)[C@H](Cc1ccc(O)cc1)NC(=O)[C@H](CC(=O)O)NC(=O)[C@H](CO)NC(=O)[C@@H](NC(=O)[C@H](Cc1ccccc1)NC(=O)[C@@H](NC(=O)CNC(=O)[C@H](CCC(=O)O)NC(=O)C(C)(C)NC(=O)[C@@H](N)Cc1ccc(O)cc1)[C@@H](C)O)[C@@H](C)O)[C@@H](C)CC)[C@@H](C)O)C(C)C)C(=O)N[C@@H](C)C(=O)NCC(=O)NCC(=O)N1CCC[C@H]1C(=O)N[C@@H](CO)C(=O)N[C@@H](CO)C(=O)NCC(=O)N[C@@H](C)C(=O)N1CCC[C@H]1C(=O)N1CCC[C@H]1C(=O)N1CCC[C@H]1C(=O)N[C@@H](CO)C(N)=O` [Compound 23] (H-Y[Aib]EGTFTSDYSI[Aib]LDKTAQK([AEEA-AEEA-γGlu-Nonadecanoyl(19-PO3H2)])AFVQWLIAGGPSSGAPPPS-NH2), in data set [1] (setting [4]), the IC50 came to 3.12 µM. Also, in data set [1] (setting [5]), the IC50 stood at 0.4 µM. Besides, in data set [2] (setting [6]), the IC50 turned out to be 5.63 µM. In data set [2] (setting [7]), the half-maximal inhibitory concentration (IC50) was determined as 0.873 µM. In data set [3], the AUC(0-inf) was determined as 574 µg·h/mL, the exposure AUC(0-t) stood at 439 µg·h/mL, the peak level (Cmax) was 2940 ng/mL and the Tmax is 34.7 h. Moreover, in data set [3], the half-life was 159 h, the “mean half life as compared to tirzepatide (in words)” value is on record as “more than twice an long as compared to tirzepatide” and the “mean half life longer compared to tirzepatide” value is “at least 50%”.

The record behind these values is patent publication US12421282B2, “Compositions and methods for the treatment of metabolic and liver disorders” (priority 2021, dated 2025).
